Assays:
[1] = target: Acetylcholine receptor subunit alpha (Homo sapiens) (UniProt P02708); assay: Inhibition of Nicotinic acetylcholine alpha1 bungarotoxin binding site (unknown origin) at 10 uM
[2] = target: Kappa-type opioid receptor (Homo sapiens) (UniProt P41145); assay: Inhibition of Opiate kappa receptor (unknown origin) at 10 uM
[3] = system: CT26; assay: Antitumor activity against mouse CT26 cells xenografted in Balb/c mouse assessed as tumor growth delay at 200 mg/kg, po bid for 22 days; assay type: functional; conditions: 528 h, read-out: TGI
[4] = target: hERG (KCNH2) (Homo sapiens, UniProt Q12809); assay: Inhibition of human ERG at 10 uM
[5] = target: Sodium-dependent noradrenaline transporter (Homo sapiens) (UniProt P23975); assay: Inhibition of Norepinephrine transporter (unknown origin) at 10 uM
Sequence of Sodium-dependent noradrenaline transporter (Homo sapiens) (P23975 whole entry): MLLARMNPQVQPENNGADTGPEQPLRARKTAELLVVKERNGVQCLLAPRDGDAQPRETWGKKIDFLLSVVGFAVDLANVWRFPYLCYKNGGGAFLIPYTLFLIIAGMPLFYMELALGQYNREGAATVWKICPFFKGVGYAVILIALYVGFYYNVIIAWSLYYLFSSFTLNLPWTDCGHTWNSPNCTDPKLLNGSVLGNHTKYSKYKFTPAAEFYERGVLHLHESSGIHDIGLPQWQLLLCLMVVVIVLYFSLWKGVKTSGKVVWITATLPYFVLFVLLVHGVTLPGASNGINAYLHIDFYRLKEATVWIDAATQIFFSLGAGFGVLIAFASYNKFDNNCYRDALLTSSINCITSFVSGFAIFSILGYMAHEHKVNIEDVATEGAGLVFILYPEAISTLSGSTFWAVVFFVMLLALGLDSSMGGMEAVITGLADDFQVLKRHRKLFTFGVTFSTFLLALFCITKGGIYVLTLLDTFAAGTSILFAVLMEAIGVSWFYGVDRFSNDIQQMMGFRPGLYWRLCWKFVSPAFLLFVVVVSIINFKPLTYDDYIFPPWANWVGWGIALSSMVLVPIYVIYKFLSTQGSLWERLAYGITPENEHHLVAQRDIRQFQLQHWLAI

[6] = target: Delta-type opioid receptor (Homo sapiens) (UniProt P41143); assay: Inhibition of Opiate delta1 receptor (unknown origin) at 10 uM
Sequence of Delta-type opioid receptor (Homo sapiens) (P41143 whole entry): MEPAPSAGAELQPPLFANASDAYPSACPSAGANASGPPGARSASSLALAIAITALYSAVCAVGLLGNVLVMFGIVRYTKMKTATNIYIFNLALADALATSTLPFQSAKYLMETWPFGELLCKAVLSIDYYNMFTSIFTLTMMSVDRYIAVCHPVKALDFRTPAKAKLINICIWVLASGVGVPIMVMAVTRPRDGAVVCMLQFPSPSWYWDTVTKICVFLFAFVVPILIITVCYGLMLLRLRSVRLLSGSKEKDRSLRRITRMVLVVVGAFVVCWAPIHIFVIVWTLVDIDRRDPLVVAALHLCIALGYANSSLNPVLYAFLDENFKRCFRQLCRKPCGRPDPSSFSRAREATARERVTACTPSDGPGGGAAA

[7] = target: Neuropeptide Y receptor type 2 (Homo sapiens) (UniProt P49146); assay: Inhibition of Neuropeptide Y2 receptor (unknown origin) at 10 uM
[8] = target: L-type calcium channel, benzothiazepine binding site (Homo sapiens, UniProt O60840+Q01668+Q13698+Q13936); assay: Inhibition of L-type calcium channel benzothiazepine binding site (unknown origin) at 10 uM; assay type: protein assay
[9] = target: Endothelin-1 receptor (Homo sapiens) (UniProt P25101); assay: Inhibition of ETA receptor (unknown origin) at 10 uM
Sequence of Endothelin-1 receptor (Homo sapiens) (P25101 whole entry): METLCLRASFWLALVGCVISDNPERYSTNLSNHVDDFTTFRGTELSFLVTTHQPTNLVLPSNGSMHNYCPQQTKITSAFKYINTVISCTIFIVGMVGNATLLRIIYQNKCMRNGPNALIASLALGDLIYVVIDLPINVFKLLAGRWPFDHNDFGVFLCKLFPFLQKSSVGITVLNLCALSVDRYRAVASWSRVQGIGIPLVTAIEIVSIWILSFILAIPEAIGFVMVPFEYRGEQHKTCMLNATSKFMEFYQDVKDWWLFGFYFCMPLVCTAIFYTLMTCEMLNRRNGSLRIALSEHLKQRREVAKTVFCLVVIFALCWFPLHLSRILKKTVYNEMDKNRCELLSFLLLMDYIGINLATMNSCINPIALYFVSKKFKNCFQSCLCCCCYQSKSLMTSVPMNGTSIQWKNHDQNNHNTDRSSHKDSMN

[10] = target: Adenosine receptor A2a (Homo sapiens) (UniProt P29274); assay: Inhibition of Adenosine A2A receptor (unknown origin) at 10 uM
[11] = system: Mus musculus; assay: Toxicity in BalB/c mouse xenografted with CT26 cells assessed as change in body weight at 100 to 400 mg/kg, po bid for 22 days; assay type: organism-based; conditions: in vivo, 528 h
[12] = species: Homo sapiens; assay: Inhibition of Phorbol ester receptor (unknown origin) at 10 uM
[13] = species: Homo sapiens; assay: Inhibition of potassium channel (unknown origin) at 10 uM
[14] = target: Sodium-dependent serotonin transporter (Homo sapiens) (UniProt P31645); assay: Inhibition of Serotonin transporter (unknown origin) at 10 uM
Sequence of Sodium-dependent serotonin transporter (Homo sapiens) (P31645 whole entry, looked up): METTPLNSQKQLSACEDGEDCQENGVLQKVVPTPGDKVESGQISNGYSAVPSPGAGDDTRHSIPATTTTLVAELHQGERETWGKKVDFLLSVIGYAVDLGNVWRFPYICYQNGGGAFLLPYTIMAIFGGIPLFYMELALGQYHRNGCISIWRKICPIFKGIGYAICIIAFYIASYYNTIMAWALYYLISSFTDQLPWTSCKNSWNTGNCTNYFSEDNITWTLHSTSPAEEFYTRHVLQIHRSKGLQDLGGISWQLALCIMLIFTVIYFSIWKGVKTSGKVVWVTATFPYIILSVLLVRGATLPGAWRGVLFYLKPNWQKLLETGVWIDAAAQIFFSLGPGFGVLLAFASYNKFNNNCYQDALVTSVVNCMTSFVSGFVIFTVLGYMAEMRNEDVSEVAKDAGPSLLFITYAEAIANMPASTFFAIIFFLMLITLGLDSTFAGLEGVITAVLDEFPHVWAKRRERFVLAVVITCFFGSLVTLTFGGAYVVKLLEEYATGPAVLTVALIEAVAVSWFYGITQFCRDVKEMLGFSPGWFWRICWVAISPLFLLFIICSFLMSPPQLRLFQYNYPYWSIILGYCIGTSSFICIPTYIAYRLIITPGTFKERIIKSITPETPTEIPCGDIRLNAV

[15] = species: Homo sapiens; assay: Inhibition of Purinergic P2Y receptor (unknown origin) at 10 uM
[16] = target: Adenosine receptor A3 (Homo sapiens) (UniProt P0DMS8); assay: Inhibition of Adenosine A3 receptor (unknown origin) at 10 uM
Sequence of Adenosine receptor A3 (Homo sapiens) (P0DMS8 whole entry): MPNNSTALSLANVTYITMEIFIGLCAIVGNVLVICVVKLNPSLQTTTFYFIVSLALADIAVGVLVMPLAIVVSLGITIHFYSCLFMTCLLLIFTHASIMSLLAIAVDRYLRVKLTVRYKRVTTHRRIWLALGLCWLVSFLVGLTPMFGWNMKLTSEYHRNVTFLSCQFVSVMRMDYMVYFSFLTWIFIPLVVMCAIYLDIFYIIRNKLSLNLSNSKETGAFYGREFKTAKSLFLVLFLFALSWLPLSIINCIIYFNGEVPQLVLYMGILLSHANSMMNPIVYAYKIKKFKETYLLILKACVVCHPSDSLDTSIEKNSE

[17] = system: CT26; assay: Antitumor activity against mouse CT26 cells xenografted in Balb/c mouse assessed as median time to end point at 100 mg/kg, po bid for 22 days; assay type: functional
[18] = system: CT26; assay: Antitumor activity against mouse CT26 cells xenografted in Balb/c mouse assessed as tumor growth delay at 400 mg/kg, po bid for 22 days; assay type: functional; conditions: 528 h, read-out: TGI
[19] = species: Homo sapiens; assay: Inhibition of I2 imidazoline binding site (unknown origin) at 10 uM
[20] = target: Cannabinoid receptor 1 (Homo sapiens) (UniProt P21554); assay: Inhibition of CB1 receptor (unknown origin) at 10 uM
[21] = target: Glucocorticoid receptor (Homo sapiens) (UniProt P04150); assay: Inhibition of Glucocorticoid receptor (unknown origin) at 10 uM
[22] = target: Beta-1 adrenergic receptor (Homo sapiens) (UniProt P08588); assay: Inhibition of Adrenergic beta1 receptor (unknown origin) at 10 uM
Sequence of Beta-1 adrenergic receptor (Homo sapiens) (P08588 whole entry, looked up): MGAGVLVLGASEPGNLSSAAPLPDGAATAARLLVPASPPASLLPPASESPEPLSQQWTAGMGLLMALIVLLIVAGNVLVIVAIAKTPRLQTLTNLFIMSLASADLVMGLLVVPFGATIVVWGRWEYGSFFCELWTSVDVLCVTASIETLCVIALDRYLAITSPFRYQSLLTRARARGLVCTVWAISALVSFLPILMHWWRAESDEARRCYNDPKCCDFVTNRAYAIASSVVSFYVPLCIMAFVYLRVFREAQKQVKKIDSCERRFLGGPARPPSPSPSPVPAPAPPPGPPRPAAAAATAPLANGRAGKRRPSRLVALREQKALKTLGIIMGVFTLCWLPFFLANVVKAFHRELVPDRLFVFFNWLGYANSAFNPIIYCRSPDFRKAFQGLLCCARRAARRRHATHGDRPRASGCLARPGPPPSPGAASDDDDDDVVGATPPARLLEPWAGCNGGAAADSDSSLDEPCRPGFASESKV

[23] = AUC (0 to infinity) in Sprague-Dawley rat plasma at 10 mg/kg, po by LC-MS/MS analysis; assay type: ADME, organism-based; set-up: dose 10 mg/kg, route oral, time infinity
[24] = target: Muscarinic acetylcholine receptor M2 (Homo sapiens) (UniProt P08172); assay: Inhibition of Muscarinic M2 receptor (unknown origin) at 10 uM
[25] = system: Mus musculus; assay: Decrease in ratio of kynurenine to tryptophan in Balb/c mouse tumor xenografted with CT26 cells at 100 mg/kg bid for 18 days administered via oral gavage after 6 hrs by LC-MS/MS analysis; assay type: functional
[26] = Cmax in Sprague-Dawley rat plasma at 10 mg/kg, po by LC-MS/MS analysis; assay type: ADME, organism-based; set-up: dose 10 mg/kg, route oral
[27] = species: Homo sapiens; assay: Inhibition of D4.2 receptor (unknown origin) at 10 uM
[28] = target: Sodium- and chloride-dependent GABA transporter 1 (Homo sapiens) (UniProt P30531); assay: Inhibition of GABA transporter (unknown origin) at 10 uM
Sequence of Sodium- and chloride-dependent GABA transporter 1 (Homo sapiens) (P30531 whole entry, looked up): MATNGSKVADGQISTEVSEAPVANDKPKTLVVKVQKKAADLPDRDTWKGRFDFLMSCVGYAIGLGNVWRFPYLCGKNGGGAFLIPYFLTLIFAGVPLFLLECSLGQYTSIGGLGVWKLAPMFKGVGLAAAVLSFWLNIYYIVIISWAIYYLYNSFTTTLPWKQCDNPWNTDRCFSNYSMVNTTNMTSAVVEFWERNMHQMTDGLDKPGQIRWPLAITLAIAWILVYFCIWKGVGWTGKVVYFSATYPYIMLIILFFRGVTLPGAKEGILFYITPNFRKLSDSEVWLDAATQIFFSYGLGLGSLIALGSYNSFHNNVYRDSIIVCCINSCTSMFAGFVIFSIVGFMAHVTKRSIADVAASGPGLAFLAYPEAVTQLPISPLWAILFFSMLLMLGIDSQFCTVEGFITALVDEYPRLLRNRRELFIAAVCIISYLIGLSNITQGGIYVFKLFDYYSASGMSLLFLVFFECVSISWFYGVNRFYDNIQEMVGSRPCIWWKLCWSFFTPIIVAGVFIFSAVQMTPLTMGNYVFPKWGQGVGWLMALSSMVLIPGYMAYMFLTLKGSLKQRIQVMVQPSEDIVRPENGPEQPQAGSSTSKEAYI

[29] = Plasma concentration in C57BL/6 mouse at 50 mg/kg, po after 2 hrs by LC-MS/MS analysis; assay type: ADME, organism-based
[30] = Half life in Sprague-Dawley rat plasma at 2 mg/kg, iv by LC-MS/MS analysis; assay type: ADME, organism-based; conditions: Sprague-Dawley, plasma
[31] = Clearance in Sprague-Dawley rat plasma at 2 mg/kg, iv by LC-MS/MS analysis; assay type: ADME, organism-based
[32] = target: Indoleamine 2,3-dioxygenase 1 (Homo sapiens, UniProt P14902); assay: Inhibition of Indoleamine 2,3-dioxygenase in human HeLa cells in presence of L-tryptophan as substrate after 24 hrs in presence of L-tryptophan; assay type: cell-based
Sequence of Indoleamine 2,3-dioxygenase 1 (P14902 whole entry): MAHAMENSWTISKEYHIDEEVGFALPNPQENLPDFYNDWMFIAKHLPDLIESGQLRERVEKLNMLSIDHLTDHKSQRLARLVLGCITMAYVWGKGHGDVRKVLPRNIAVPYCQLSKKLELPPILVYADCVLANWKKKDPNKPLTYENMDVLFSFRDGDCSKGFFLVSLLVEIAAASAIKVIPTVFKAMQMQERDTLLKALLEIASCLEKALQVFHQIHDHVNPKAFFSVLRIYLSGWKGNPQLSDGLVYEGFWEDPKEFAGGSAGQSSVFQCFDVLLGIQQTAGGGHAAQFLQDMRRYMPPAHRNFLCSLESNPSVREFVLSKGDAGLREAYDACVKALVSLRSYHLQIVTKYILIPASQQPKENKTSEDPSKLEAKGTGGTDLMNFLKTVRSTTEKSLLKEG

[33] = target: L-type calcium channel, dihydropyridine binding site (Homo sapiens, UniProt O60840+Q01668+Q13698+Q13936); assay: Inhibition of L-type calcium channel dihydropyridine binding site (unknown origin) at 10 uM; assay type: protein assay
[34] = Oral bioavailability in Sprague-Dawley rat plasma at 10 mg/kg by LC-MS/MS analysis; assay type: ADME, organism-based
[35] = target: Cysteinyl leukotriene receptor 1 (Homo sapiens) (UniProt Q9Y271); assay: Inhibition of CysLT1 receptor (unknown origin) at 10 uM
Sequence of Cysteinyl leukotriene receptor 1 (Homo sapiens) (Q9Y271 whole entry): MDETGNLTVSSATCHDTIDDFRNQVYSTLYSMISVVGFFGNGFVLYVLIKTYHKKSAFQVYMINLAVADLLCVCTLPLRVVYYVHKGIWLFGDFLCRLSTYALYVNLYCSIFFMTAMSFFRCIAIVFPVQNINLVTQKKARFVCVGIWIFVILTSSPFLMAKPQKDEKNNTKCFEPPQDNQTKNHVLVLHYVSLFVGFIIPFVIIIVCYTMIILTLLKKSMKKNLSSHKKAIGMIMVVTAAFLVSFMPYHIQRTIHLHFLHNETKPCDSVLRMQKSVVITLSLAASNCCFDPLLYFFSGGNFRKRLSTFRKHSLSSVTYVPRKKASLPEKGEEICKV

[36] = target: Neuropeptide Y receptor type 1 (Homo sapiens) (UniProt P25929); assay: Inhibition of Neuropeptide Y1 receptor (unknown origin) at 10 uM
[37] = target: Prostaglandin E2 receptor EP4 subtype (Homo sapiens) (UniProt P35408); assay: Inhibition of Prostaglandin E2 receptor EP4 (unknown origin) at 10 uM
Sequence of Prostaglandin E2 receptor EP4 subtype (Homo sapiens) (P35408 whole entry): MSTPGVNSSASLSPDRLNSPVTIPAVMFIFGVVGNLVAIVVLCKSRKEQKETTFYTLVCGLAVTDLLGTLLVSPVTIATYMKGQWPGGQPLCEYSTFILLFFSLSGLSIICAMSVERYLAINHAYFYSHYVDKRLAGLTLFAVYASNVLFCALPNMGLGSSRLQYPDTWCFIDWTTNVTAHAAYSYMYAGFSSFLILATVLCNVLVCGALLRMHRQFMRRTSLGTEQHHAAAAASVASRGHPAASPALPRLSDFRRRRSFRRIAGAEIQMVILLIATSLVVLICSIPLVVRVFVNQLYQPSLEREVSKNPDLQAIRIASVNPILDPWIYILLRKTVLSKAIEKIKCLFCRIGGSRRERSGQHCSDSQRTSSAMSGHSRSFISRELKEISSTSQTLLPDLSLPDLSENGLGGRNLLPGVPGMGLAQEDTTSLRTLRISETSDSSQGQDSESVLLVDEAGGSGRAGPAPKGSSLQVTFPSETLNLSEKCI

[38] = species: Homo sapiens; assay: Inhibition of Nicotinic acetylcholine receptor (unknown origin) at 10 uM
[39] = system: CT26; assay: Antitumor activity against mouse CT26 cells xenografted in Balb/c mouse assessed as median time to end point at 400 mg/kg, po bid for 22 days; assay type: functional
[40] = Plasma concentration in C57BL/6 mouse at 50 mg/kg, po after 5 hrs by LC-MS/MS analysis; assay type: ADME, organism-based
[41] = species: Homo sapiens; assay: Inhibition of N-type calcium channel (unknown origin) at 10 uM
[42] = species: Homo sapiens; assay: Inhibition of Purinergic P2X receptor (unknown origin) at 10 uM
[43] = target: Alpha-1A adrenergic receptor (Homo sapiens) (UniProt P35348); assay: Inhibition of Adrenergic alpha1A receptor (unknown origin) at 10 uM
[44] = target: Alpha-2A adrenergic receptor (Homo sapiens) (UniProt P08913); assay: Inhibition of Adrenergic alpha2A receptor (unknown origin) at 10 uM
[45] = target: Alpha-1B adrenergic receptor (Homo sapiens) (UniProt P35368); assay: Inhibition of Adrenergic alpha1B receptor (unknown origin) at 10 uM
[46] = species: Homo sapiens; assay: Inhibition of Glutamate kainate receptor (unknown origin) at 10 uM

In the case of `O=C1Cc2cc(S(=O)(=O)NNc3ccc(Br)cc3)ccc2N1`, the inhibition [1] is reported as less than 50%, the inhibition [2] is reported as less than 50% and the inhibition in vivo at 200 mg/kg [3] is reported as 63%. The inhibition at 10 µM [4] was less than 50%, the inhibition [5] was 62% and the inhibition [6] was less than 50%. For the same molecule, the inhibition [7] was less than 50%, the inhibition at 10 µM [8] was less than 50% and the inhibition [9] was less than 50%. For the same molecule, the inhibition [10] was less than 50%, the Activity [11] was “Non-toxic” and the inhibition [12] was less than 50%. For the same molecule, the inhibition [13] was less than 50%, the inhibition [14] was less than 50% and the inhibition [15] was less than 50%. The inhibition [16] was less than 50%, the Time [17] was 4 days and the inhibition in vivo at 400 mg/kg [18] was 73%. It also gave an inhibition [19] of less than 50%, an inhibition [20] of less than 50% and an inhibition [21] of less than 50%. For the same molecule, the inhibition [22] was less than 50%, the AUC(0-inf) [23] was 7200 ng·h/mL and the inhibition [24] was less than 50%. For the same molecule, the inhibition in vivo at 100 mg/kg [25] was 83%, the Cmax [26] was 2590 ng/mL and the inhibition [27] was less than 50%. For the same molecule, the inhibition [28] was less than 50%, the concentration at 2 h [29] was 4 µM and the half-life [30] was 2.3 h. The clearance [31] was 15.9 mL/min/kg, the EC50 [32] was 67.6 nM and the inhibition at 10 µM [33] was less than 50%. The bioavailability [34] was 59%, the inhibition [35] was less than 50% and the inhibition [36] was less than 50%. It also gave an inhibition [37] of less than 50%, an inhibition [38] of less than 50% and a Time [39] of 7.4 days. For the same molecule, the concentration at 5 h [40] was 2.2 µM, the inhibition [41] was less than 50% and the inhibition [42] was less than 50%. It also gave an inhibition [43] of less than 50%, an inhibition [44] of less than 50% and an inhibition [45] of less than 50%. It also gave an inhibition [46] of less than 50%.

Reference: ChEMBL document CHEMBL3763120, “Phenyl Benzenesulfonylhydrazides Exhibit Selective Indoleamine 2,3-Dioxygenase Inhibition with Potent in Vivo Pharmacodynamic Activity and Antitumor Efficacy” (J Med Chem, 2016)
